Experimental findings from US10266510B2, “Antimicrobial and cytotoxic compounds and methods for treating cancer, a bacterial infection, and/or a fungal infection” (King Abdulaziz University, priority 2017, dated 2019) are described below.

Experiment in all cases: Well diffusion agar method, inhibition zone
Assay type in all cases: cell-based

The subject of assay [1] is Aspergillus flavus ATCC 16883. From the text:
(§1) The ability to inhibit the growth of Gram-positive and Gram-negative bacteria, yeasts and filamentous fungi was observed using an overlay method (S. R. Connell, D. M. Tracz, K. H. Nierhaus, D. E. Taylor, Antimicrob. Agents Chemother. 47, 3675 (2003), incorporated herein by reference in its entirety).
(§2) The common pathogenic and food spoilage microorganisms were selected for their relevance in bakery products and other food: the gram-positive bacteria: Bacillus subtilits NRRL-B-4219, Staphylococcus aureus ATCC 6538, Enterococcus faecalis ATCC 19433; the gram negative bacteria: Escherichia coli ATCC 25922, Pseudomonas aeruginosa ATCC 9027, Proteus sp.; yeasts, such as Candida albicans ATCC 10231; and fungi: Aspergillus niger NRRL 2766 (equivalent to ATCC 16888), and Aspergillus flavus ATCC 16883. The bacteria were slanted on nutrient agar (Merck, Darmstadt, Germany), yeast was slanted and mentioned on Sabaroud's agar medium (Lab M., Bury, Lancashire, UK) and the fungi was slanted and mentioned on the potato Dextrose Agar medium (Lab M Limited, Bury, Lancashire, UK). Mueller-Hinton agar (Lab M., Bury, Lancashire, UK) following the manufacturer's instructions was used for the assay.
(§3) All compounds were dissolved in dimethyl sulfoxide (RFCL Limited, New Delhi, India) at 50 μg/mL concentration as shown in Table 4 in comparison with different standard antibiotics. Antibiotic discs of Streptomycin (S) (10 μg), Oxytetracycline (T) (30 μg), and Tetracyciline (TE) (30 μg) were used as positive controls for bacteria. Neomycin (N) (30 μg), was used for fungi.
(§4) The antibacterial screening was performed with the well diffusion agar method (S. T. Williams, M. Goodfellow, E. M. H. Wellington, J. C. Vickers, G. Alderson, P. H. A. Sneath, S. M. J. Sackins, A. M. Mortimer, J. Gen. Microbiol. 129, 1815(1983); and B. Bonev, J. Hooper, J. Parisot, J. Antimicrob. Chemother., 61, 1295(2008), each incorporated herein by reference in their entirety). The organisms were streaked in radial patterns on the agar plates. Plates were incubated under aerobic conditions at 37° C. and 28° C. for 24 h and 48 h for bacteria and fungi, respectively. All prepared solutions were treated under the same conditions under the same incubated plates. All tests were performed in triplicate. Plates were examined for evidence of antimicrobial activities, represented by a zone of inhibition of the microorganism's growth around the holes, and diameters of clear zones were expressed in millimeters (R. Cruickshank, J. P. Duguid, B. P. Marmion, R. H. A. Swain, The practice of medicinal microbiology. In Medical Microbiology, 12th ed.; Churchill Livingstone: Edinburgh, UK, Volume 11, pp. 196-202 (1975), incorporated herein by reference in its entirety).

The test system of assay [2] is Aspergillus niger NRRL 2766.
Text: as §1, §2, §3, §4

Assay [3] relates to Bacillus subtilits NRRL-B-4219.
Text: as §1, §2, §3, §4

Assay [4] concerns Candida albicans ATCC 10231.
Text: as §1, §2, §3, §4

Assay [5] relates to Enterococcus faecalis ATCC 19433.
Text: as §1, §2, §3, §4

The subject of assay [6] is Escherichia coli ATCC 25922.
Text: as §1, §2, §3, §4

In a further assay the test system is Proteus sp.
Text: as §1, §2, §3, §4

Assay [7] relates to Pseudomonas aeruginosa ATCC 9027.
Text: as §1, §2, §3, §4

The test system of assay [8] is Staphylococcus aureus ATCC 6538.
Text: as §1, §2, §3, §4

As to `[H]/N=C(/N)N[C@H]1[C@H](O)[C@@H](O)[C@H](O[C@@H]2O[C@@H](C)[C@](O)(C=O)[C@H]2O[C@@H]2O[C@@H](CO)[C@H](O)[C@@H](O)[C@@H]2NC)[C@@H](N/C(N)=N\[H])[C@@H]1O` (relative stereo) [S*, Streptomycin], the “Inhibition zone, A. flavus” value in [1] (standard antibiotic disc 10 μg) is given as 0 mm. Besides, the “Inhibition zone, A. niger” value in assay [2] (standard antibiotic disc 10 μg) is reported as 0 mm. For the same compound, the “Inhibition zone, B. subtilits” value in assay [3] (standard antibiotic disc 10 μg) was 14 mm. In addition, the “Inhibition zone, C. albicans” value in assay [4] (standard antibiotic disc 10 μg) was 12 mm. For the same compound, the “Inhibition zone, Ent. faecalis” value in assay [5] (standard antibiotic disc 10 μg) stood at 0 mm. Further, the “Inhibition zone, E. coli” value in assay [6] (standard antibiotic disc 10 μg) is 0 mm. For the same compound, the “Inhibition zone, Proteus sp.” value in the assay on Proteus sp. (standard antibiotic disc 10 μg) is reported as 0 mm. The “Inhibition zone, P. aeruginosa” value in assay [7] (standard antibiotic disc 10 μg) was determined as 0 mm. In assay [8] (standard antibiotic disc 10 μg), the “Inhibition zone, S. aureus” value is recorded as 0 mm.
`NC[C@@H]1O[C@H](O[C@H]2[C@@H](O)[C@H](O[C@@H]3[C@@H](O)[C@H](N)C[C@H](N)[C@H]3O[C@H]3O[C@H](CN)[C@@H](O)[C@H](O)[C@H]3N)O[C@@H]2CO)[C@H](N)[C@@H](O)[C@@H]1O` [N*, Neomycin]: in [1] (standard antibiotic disc 30 μg), the “Inhibition zone, A. flavus” value is 14 mm. Moreover, in assay [2] (standard antibiotic disc 30 μg), the “Inhibition zone, A. niger” value amounted to 16 mm. Also, the “Inhibition zone, B. subtilits” value in [3] (standard antibiotic disc 30 μg) was 0 mm. In addition, in [4] (standard antibiotic disc 30 μg), the “Inhibition zone, C. albicans” value came out at 0 mm. The “Inhibition zone, Ent. faecalis” value in [5] (standard antibiotic disc 30 μg) came to 0 mm. For the same compound, in assay [6] (standard antibiotic disc 30 μg), the “Inhibition zone, E. coli” value is reported as 0 mm. In the assay on Proteus sp. (standard antibiotic disc 30 μg), the “Inhibition zone, Proteus sp.” value worked out at 0 mm. Further, the “Inhibition zone, P. aeruginosa” value in [7] (standard antibiotic disc 30 μg) is 0 mm. Moreover, the “Inhibition zone, S. aureus” value in assay [8] (standard antibiotic disc 30 μg) turned out to be 0 mm.
`CN(C)[C@@H]1C(O)=C(C(N)=O)C(=O)[C@@]2(O)C(O)=C3C(=O)c4c(O)cccc4[C@@](C)(O)[C@H]3[C@H](O)[C@@H]12` [T*, Oxytetracycline]: the “Inhibition zone, A. flavus” value in assay [1] (standard antibiotic disc 30 μg) came to 0 mm. In addition, the “Inhibition zone, A. niger” value in assay [2] (standard antibiotic disc 30 μg) is given as 0 mm. Moreover, the “Inhibition zone, B. subtilits” value in assay [3] (standard antibiotic disc 30 μg) is 30 mm. The “Inhibition zone, C. albicans” value in assay [4] (standard antibiotic disc 30 μg) is reported as 0 mm. Besides, the “Inhibition zone, Ent. faecalis” value in [5] (standard antibiotic disc 30 μg) stood at 0 mm. The “Inhibition zone, E. coli” value in assay [6] (standard antibiotic disc 30 μg) is on record as 0 mm. Further, the “Inhibition zone, Proteus sp.” value in the assay on Proteus sp. (standard antibiotic disc 30 μg) came to 0 mm. In [7] (standard antibiotic disc 30 μg), the “Inhibition zone, P. aeruginosa” value worked out at 0 mm. For the same compound, the “Inhibition zone, S. aureus” value in assay [8] (standard antibiotic disc 30 μg) is 0 mm.
As to `CN(C)[C@@H]1C(O)=C(C(N)=O)C(=O)[C@@]2(O)C(O)=C3C(=O)c4c(O)cccc4[C@@](C)(O)[C@H]3C[C@@H]12` [TE*, Tetracyciline], in assay [1] (standard antibiotic disc 30 μg), the “Inhibition zone, A. flavus” value is 14 mm. The “Inhibition zone, A. niger” value in [2] (standard antibiotic disc 30 μg) was determined as 16 mm. Also, in [3] (standard antibiotic disc 30 μg), the “Inhibition zone, B. subtilits” value is 10 mm. Further, the “Inhibition zone, C. albicans” value in assay [4] (standard antibiotic disc 30 μg) is 0 mm. In assay [5] (standard antibiotic disc 30 μg), the “Inhibition zone, Ent. faecalis” value is listed as 0 mm. Also, the “Inhibition zone, E. coli” value in [6] (standard antibiotic disc 30 μg) worked out at 0 mm. For the same compound, in the assay with Proteus sp. (standard antibiotic disc 30 μg), the “Inhibition zone, Proteus sp.” value is 0 mm. Moreover, the “Inhibition zone, P. aeruginosa” value in assay [7] (standard antibiotic disc 30 μg) turned out to be 0 mm. Moreover, in assay [8] (standard antibiotic disc 30 μg), the “Inhibition zone, S. aureus” value was 0 mm.
